The test has as its target ATP-dependent translocase ABCB1 (Homo sapiens, UniProt P08183).

Each structure is given as a SMILES string.

The values that follow come from ChEMBL document CHEMBL2449286, “Structure-activity data for a series of P-glycoprotein inhibitors (Supplementary Data to CHEMBL1142990)”.

ATP-dependent translocase ABCB1, sequence (P08183 whole entry): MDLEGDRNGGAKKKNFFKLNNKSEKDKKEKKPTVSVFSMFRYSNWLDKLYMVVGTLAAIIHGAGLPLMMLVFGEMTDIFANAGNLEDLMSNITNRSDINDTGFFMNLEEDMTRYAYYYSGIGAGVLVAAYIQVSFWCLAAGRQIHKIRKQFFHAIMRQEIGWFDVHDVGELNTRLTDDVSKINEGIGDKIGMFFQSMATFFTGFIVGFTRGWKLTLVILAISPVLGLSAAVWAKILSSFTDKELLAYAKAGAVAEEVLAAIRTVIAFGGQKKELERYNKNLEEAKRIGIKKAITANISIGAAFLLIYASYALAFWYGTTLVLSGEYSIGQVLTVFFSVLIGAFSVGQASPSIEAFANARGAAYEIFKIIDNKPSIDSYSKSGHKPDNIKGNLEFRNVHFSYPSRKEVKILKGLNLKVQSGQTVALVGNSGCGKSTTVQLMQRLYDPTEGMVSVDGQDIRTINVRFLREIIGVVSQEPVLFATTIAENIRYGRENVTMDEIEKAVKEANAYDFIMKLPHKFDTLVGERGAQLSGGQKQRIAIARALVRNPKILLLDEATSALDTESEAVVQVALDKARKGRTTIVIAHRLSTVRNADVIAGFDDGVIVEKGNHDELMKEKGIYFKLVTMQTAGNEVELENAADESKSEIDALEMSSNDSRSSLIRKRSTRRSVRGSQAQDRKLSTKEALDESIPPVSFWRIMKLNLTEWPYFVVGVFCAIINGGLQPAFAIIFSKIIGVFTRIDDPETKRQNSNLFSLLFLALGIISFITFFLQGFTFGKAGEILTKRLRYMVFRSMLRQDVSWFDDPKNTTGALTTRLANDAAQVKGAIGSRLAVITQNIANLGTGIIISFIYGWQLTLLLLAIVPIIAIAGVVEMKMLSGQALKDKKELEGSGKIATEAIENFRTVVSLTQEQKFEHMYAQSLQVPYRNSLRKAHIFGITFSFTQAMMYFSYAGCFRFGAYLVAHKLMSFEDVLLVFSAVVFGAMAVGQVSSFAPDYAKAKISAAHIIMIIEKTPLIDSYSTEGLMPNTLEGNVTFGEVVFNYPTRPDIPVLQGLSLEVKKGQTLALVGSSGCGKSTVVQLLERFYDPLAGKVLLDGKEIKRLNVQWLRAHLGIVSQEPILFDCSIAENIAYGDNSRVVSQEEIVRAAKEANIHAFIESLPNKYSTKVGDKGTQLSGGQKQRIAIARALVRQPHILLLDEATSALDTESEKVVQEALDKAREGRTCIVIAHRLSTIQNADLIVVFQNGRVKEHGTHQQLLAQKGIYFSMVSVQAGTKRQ

In general, EC50 refers to the midpoint of the concentration-response curve. The low end stands for an effect from little substance, the high end for a need for much substance. Regarding `Cc1ccc(-c2n[nH]c3c2[C@@H](c2ccc(N(C)C)cc2)C(C#N)=C(N)O3)cc1`, the EC50 is 3.09 µM.
As for `CC(C)N(C[C@@H](O)COc1ccc(C(=O)c2ccccc2)cc1)C(C)C`, the figure is 0.437 µM; as for `O=C(c1ccccc1)c1cccc(OC[C@H](O)CN2CCOCC2)c1`, 11.5 µM.
Then `O=C(CCc1cccc2ccccc12)c1ccc(OC[C@H](O)CN2CCCCC2)cc1`, with 0.263 µM.
In turn, `CC(C)N(C[C@@H](O)COc1ccc(C(=O)CCc2cccc3ccccc23)cc1)C(C)C` showed an EC50 of 0.115 µM.
In turn, `O=C(CCc1cccc2ccccc12)c1cccc(OC[C@H](O)CN2CCOCC2)c1` showed an EC50 of 0.631 µM.
Then `O=C(CCc1cccc2ccccc12)c1cccc(OC[C@H](O)CN2CCCCC2)c1`, with 0.145 µM; and `CC(C)N(C[C@@H](O)COc1cccc(C(=O)CCc2cccc3ccccc23)c1)C(C)C`, with 0.0589 µM.
Molecule `Cc1c(C(=O)c2ccccc2)c(=O)n(-c2ccccc2)n1C[C@H](O)CN(C(C)C)C(C)C` had an EC50 of 15.8 µM.
As for `Cc1ccccc1N1CCN(C[C@@H](O)Cn2c(C)c(C(=O)c3ccccc3)c(=O)n2-c2ccccc2)CC1`, the figure is 0.891 µM; as for `Cc1c(C(=O)c2ccccc2)c(=O)n(C)n1C[C@H](O)CN(C(C)C)C(C)C`, 24 µM.
Then `Cc1nn(C)c(OC[C@H](O)CN(C(C)C)C(C)C)c1C(=O)c1ccccc1`, with 1.2 µM; and `Cc1c([C@H](O)c2ccccc2)c(=O)n(-c2ccccc2)n1C[C@H](O)CN(C(C)C)C(C)C`, with 24 µM; and `CCC/N=C(/CCc1ccccc1)[C@H]1C(=O)N(c2ccccc2)N=C1C`, with 3.72 µM.
For `CCCNC[C@@H](O)Cn1c(C)c(C(=O)CCc2ccccc2)c(=O)n1-c1ccccc1`, the midpoint of the response, the EC50, lay at 6.31 µM.
Take `CCCNC[C@@H](O)Cn1c(C)c(C(=O)c2ccccc2)c(=O)n1-c1ccccc1`: the EC50 was 186 µM.
Molecule `Cc1c(C(=O)CCc2ccccc2)c(=O)n(-c2ccccc2)n1C[C@H](O)CNC(C)C` had an EC50 of 11.7 µM.
As for `Cc1c(C(=O)CCc2ccccc2)c(=O)n(-c2ccccc2)n1C[C@H](O)CNC(C)(C)C`, the figure is 7.76 µM; as for `CCCCNC[C@@H](O)Cn1c(C)c(C(=O)CCc2ccccc2)c(=O)n1-c1ccccc1`, 2.69 µM; as for `Cc1c(C(=O)c2cccs2)c(=O)n(-c2ccccc2)n1C[C@H](O)CNC(C)(C)C`, 72.4 µM.
Then `Cc1c(C(=O)c2cccs2)c(=O)n(-c2ccccc2)n1C[C@H](O)CNC(C)C`, with 123 µM.
As to `Cc1c(C(=O)c2ccccc2)c(=O)n(-c2ccccc2)n1C[C@H](O)CNC(C)C`, the concentration giving a half-maximal response (EC50) is 83.2 µM.
The molecule `Cc1c(C(=O)c2ccccc2)c(=O)n(-c2ccccc2)n1C[C@H](O)CNC(C)(C)C` gave an EC50 of 81.3 µM.
As for `CCCNC[C@@H](O)Cn1c(C)c(C(=O)c2cccs2)c(=O)n1-c1ccccc1`, the figure is 95.5 µM.
The molecule `CCCNC[C@@H](O)COc1ccsc1C(=O)CCc1ccccc1` had an EC50 of 0.813 µM.
As for `CN1CCO[C@@H]2[C@@H]1c1cc(C#N)ccc1OC2(C)C`, a half-maximal response (EC50) required 61.7 µM.
As for `CC1(C)Oc2ccc(C#N)cc2[C@H]2[C@H]1OCCN2Cc1ccccc1`, the figure is 19.5 µM.
As for `CN(CCO)[C@H]1c2cc(C#N)ccc2OC(C)(C)[C@@H]1O`, the response was half-maximal at 97.7 µM (EC50).
Take `CC1(C)Oc2ccc(C#N)cc2[C@H](N(CCO)Cc2ccccc2)[C@H]1O`: the EC50 is 5.37 µM.
`CC(C)[C@H](C(=O)OC(C)(C)C)N(C)[C@H]1c2cc(C#N)ccc2OC(C)(C)[C@@H]1O` gave an EC50 of 0.977 µM.
For `CC(C)[C@@H]1CO[C@@H]2[C@@H](N1)c1cc(C#N)ccc1OC2(C)C`, it took 49 µM to reach a half-maximal effect (EC50).
As for `COc1ccccc1N1CCN([C@H]2c3ccccc3N(C(=O)c3ccc(C)cc3)[C@H](C)[C@@H]2O)CC1`, the figure is 3.55 µM; as for `CCN(CCO)[C@@H]1c2ccccc2N(C(=O)c2ccc(C)cc2)[C@H](C)[C@@H]1O`, 9.12 µM.
With `Cc1ccc(C(=O)N2c3ccccc3[C@@H](N(CCO)Cc3ccccc3)[C@@H](O)[C@H]2C)cc1`, the EC50 was 1.38 µM.
`Cc1ccc(C(=O)N2c3ccccc3[C@H](NCc3ccccc3)[C@@H](O)[C@H]2C)cc1` had an EC50 of 3.24 µM.
Turning to `Cc1ccc(C(=O)N2c3ccccc3[C@H](N3CCN(Cc4ccccc4)CC3)[C@@H](O)[C@H]2C)cc1`, it took 0.427 µM to reach a half-maximal effect (EC50).
`Cc1ccc(C(=O)N2c3ccccc3[C@@H](N3CCCC3)[C@@H](O)[C@H]2C)cc1` gave an EC50 of 7.94 µM.
As for `Cc1ccc(C(=O)O[C@@H]2[C@H](N3CCCC3)c3ccccc3N[C@@H]2C)cc1`, the figure is 4.68 µM; as for `CCN(CC)CCC[C@H](C)N[C@@H]1c2ccccc2N(C(=O)c2ccc(C)cc2)[C@H](C)[C@@H]1O`, 2.69 µM.
Then `CCN(CC)CCC[C@H](C)N[C@@H]1c2ccccc2N[C@H](C)[C@@H]1OC(=O)c1ccc(C)cc1`, with 0.331 µM.
The molecule `CC(C)[C@H](N[C@H]1c2cc(C#N)ccc2OC(C)(C)[C@@H]1O)C(=O)OC(C)(C)C` gave an EC50 of 1.78 µM.
As for `CCc1ccc(N2C(=O)c3ccccc3N[C@H]2c2ccc(OCC(C)C)cc2)cc1`, the figure is 1.2 µM.
As for `CCOc1ccc(N2C(=O)c3ccccc3N[C@H]2c2ccc(N(C)C)cc2)cc1`, the figure is 25.1 µM.
`COc1ccc([C@@H]2Nc3ccccc3C(=O)N2c2ccc(NC(C)=O)cc2)cc1`: the response was half-maximal at 20.9 µM (EC50).
`COc1ccc([C@@H]2Nc3ccccc3C(=O)N2c2ccc(Oc3ccccc3)cc2)cc1`: it took 1 µM to reach a half-maximal effect (EC50).
As for `CC[C@H](C)c1ccc(N2C(=O)c3ccccc3N[C@H]2c2ccc(OC)cc2)cc1`, the figure is 0.759 µM; as for `CC[C@H](C)c1ccc(N2C(=O)c3ccccc3N[C@H]2c2ccc(C(C)C)cc2)cc1`, 0.288 µM.
Molecule `CC(C)(C)c1ccc(N2C(=O)c3ccccc3N[C@H]2c2ccc3c(c2)OCO3)cc1` gave an EC50 of 0.741 µM.
In the case of `CCOc1ccccc1NC(=O)C1=C(C)NC(=S)N[C@@H]1c1cccs1`, the response was half-maximal at 8.71 µM (EC50).
Regarding `CC(C)(C)OC(=O)CN(Cc1ccccc1)[C@H]1c2cc(C#N)ccc2OC(C)(C)[C@@H]1O`, the EC50 was 2 µM.
As for `CC1(C)Oc2ccc(C#N)cc2[C@H](N2CCN(Cc3ccccc3)CC2)[C@H]1O`, the figure is 0.851 µM.
For the molecule `CC(C)(C)OC(=O)CN[C@H]1c2cc(C#N)ccc2OC(C)(C)[C@@H]1O`, the EC50 was 46.8 µM.
